# How the values were obtained:
# [1] = system: recombinant guanylate cyclase reporter cell line; assay: Effect on a recombinant guanylate cyclase reporter cell line; format: cell-based
# Procedure: The cellular activity of the compounds according to the invention is determined using a recombinant guanylate cyclase reporter cell line, as described in F. Wunder et al., Anal. Biochem. 339, 104-112 (2005).
# rabbit aorta rings = assay: Vasorelaxant action in vitro (phenylephrine-contracted rabbit aorta rings); details: Oryctolagus cuniculus, phenylephrine contraction, 0.1% DMSO, read-out: IC50 (concentration needed to reduce the phenylephrine contraction by 50%)
# Procedure: Rabbits are stunned by a blow to the neck and exsanguinated. The aorta is removed, freed from adhering tissue and divided into rings of a width of 1.5 mm. The rings are placed individually under an initial tension in 5 ml organ baths with Krebs-Henseleit solution which is at 37° C., is gassed with carbogen and has the following composition (in each case mM): sodium chloride 119; potassium chloride: 4.8; calcium chloride dihydrate: 1; magnesium sulfate heptahydrate: 1.4; potassium dihydrogenphosphate: 1.2; sodium bicarbonate: 25; glucose: 10. The contractile force is determined with Statham UC2 cells, amplified and digitalized using A/D transducers (DAS 1802 HC, Keithley Instruments Munich), and recorded in parallel on linear recorders. To obtain a contraction, phenylephrine is added to the bath cumulatively in increasing concentration. After several control cycles, the substance to be investigated is added in each further run in increasing dosage in each case, and the height of the contraction achieved is compared with the height of the contraction reached in the last preceding run. This is used to calculate the concentration needed to reduce the magnitude of the control value by 50% (IC50 value). The standard administration volume is 5 μl; the DMSO content in the bath solution corresponds to 0.1%.
# [2] = Pharmacokinetic parameters following intravenous administration to rats; format: in vivo, male Wistar rats; details: rat, 0.3 mg/kg intravenous; for MRT / half-life: male, Wistar, plasma; for MRT: read-out: Mean residence time; for half-life: read-out: Terminal half-life (converted)
# Procedure: The pharmacokinetic parameters of the compounds of the formula (I) according to the invention are determined in male Wistar rats. The administration volume is 5 ml/kg. Intravenous administration is by means of a species-specific plasma/DMSO formulation (99/1). The taking of blood from rats is simplified by inserting a silicone catheter into the right Vena jugularis externa prior to substance administration. The surgical intervention takes place one day prior to the experiment with isofluran anesthesia and administration of an analgetic (atropine/rimadyl (3/1) 0.1 ml s.c.). Substance administration is as an i.v. bolus. Removal of blood from the rats is after 0.033, 0.083, 0.17, 0.5, 1, 2, 3, 4, 6, 8, 24 and 27 hours. The blood is removed into heparinized tubes. The blood plasma is then obtained by centrifugation; if required, it can be stored at −20° C. until further processing.
# An internal standard (ZK 228859) is added to the samples of the compounds of the formula (I) according to the invention, calibration samples and QCs, and the protein is precipitated using excess acetonitrile. After addition of an ammonium acetate buffer (0.01 M, pH 6.8) and subsequent vortexing, the mixture is centrifuged at 1000 g and the supernatant is examined by LC-MS/MS (API 4000, AB Sciex). Chromatographic separation is carried out on an Agilent 1100-HPLC. The injection volume is 20 μl. The separation column used is a Phenomenex Gemini 5μ C18 110A 50×3 mm, adjusted to a temperature of 40° C. A binary mobile phase gradient at 500 μl/min is used (A: 0.01M ammonium acetate buffer pH 6.8, B: 0.1% formic acid in acetonitrile): 0 min (90% A), 1 min (90% A), 3 min (10% A), 4 min (10% A), 4.50 min (90% A), 6 min (90% A). The temperature of the Turbo V ion source is 400° C. The following MS instrument parameters are used: curtain gas 15 units, ion spray voltage 4.8 kV, gas 1 50 units, gas 2 40 units, CAD gas 8 units. The substances are quantified by peak heights or areas using extracted ion chromatograms of specific MRM experiments.
# The plasma concentration/time plots determined are used to calculate the pharmacokinetic parameters such as AUC, Cmax, t1/2 (terminal half life), MRT (mean residence time) and CL (clearance), using the validated pharmacokinetic calculation program KinEx (Vers.3).
# Since the substance quantification is performed in plasma, it is necessary to determine the blood/plasma distribution of the substance in order to be able to adjust the pharmacokinetic parameters correspondingly. For this purpose, a defined amount of substance is incubated in heparinized whole blood of the species in question in a rocking roller mixer for 20 min. After centrifugation at 1000 g, the plasma concentration is measured (see above) and determined by calculating the quotient of the cblood/cplasma values.
# Following intravenous administration of 0.3 mg/kg of representative compounds according to the invention to rats, the data listed in Table 3 were obtained: […]
Compound,MEC (minimum effective concentration) [1] [µM],IC50 (rabbit aorta rings) [µM],MRT [2] [h],half-life [2] [h],CLblood [2] [L/h/kg]
"CC1(C)C(=O)Nc2nc(-c3nc(Cc4ccccc4F)n4ncccc34)nnc21 [Example 4, 3-[7-(2-Fluorobenzyl)imidazo[1,5-b]pyridazin-5-yl]-7,7-dimethyl-5,7-dihydro-6H-pyrrolo[2,3-e][1,2,4]triazin-6-one]",0.03,0.042,–,–,–
"CC1(C)C(=O)Nc2nc(-c3nc(Cc4ccccc4F)n4ncccc34)nc(I)c21 [Example 1, 2-[7-(2-Fluorobenzyl)imidazo[1,5-b]pyridazin-5-yl]-4-iodo-5,5-dimethyl-5,7-dihydro-6H-pyrrolo[2,3-d]pyrimidin-6-one]",0.1,–,–,–,–
"CC1(C)C(=O)Nc2nc(-c3nc(Cc4ccccc4F)n4ncccc34)ncc21 [Example 3, 2-[7-(2-Fluorobenzyl)imidazo[1,5-b]pyridazin-5-yl]-5,5-dimethyl-5,7-dihydro-6H-pyrrolo[2,3-d]pyrimidin-6-one]",0.03,0.072,–,–,–
"CC1(C)C(=O)Nc2nc(-c3nc(Cc4c(F)ccc(F)c4F)n4cc(Cl)ccc34)ncc21 [Example 7, 2-[6-Chloro-3-(2,3,6-trifluorobenzyl)imidazo[1,5-a]pyridin-1-yl]-5,5-dimethyl-5,7-dihydro-6H-pyrrolo[2,3-d]pyrimidin-6-one]",0.01,–,–,–,–
"CC1(C)C(=O)Nc2nc(-c3nc(Cc4c(F)ccc(F)c4F)n4cc(Cl)ccc34)nnc21 [Example 11, 3-[6-Chloro-3-(2,3,6-trifluorobenzyl)imidazo[1,5-a]pyridin-1-yl]-7,7-dimethyl-5,7-dihydro-6H-pyrrolo[2,3-e][1,2,4]triazin-6-one]",0.03,0.03,9.4,7.2,0.03
"CC1(C)C(=O)Nc2nc(-c3nc(CCC(F)(F)C(F)(F)F)n4cc(F)ccc34)nnc21 [Example 12, 3-[6-Fluoro-3-(3,3,4,4,4-pentafluorobutyl)imidazo[1,5-a]pyridin-1-yl]-7,7-dimethyl-5,7-dihydro-6H-pyrrolo[2,3-e][1,2,4]triazin-6-one]",1.0,0.276,4.6,5.2,0.16

# Source: patent US20140171434A1, “SUBSTITUTED IMIDAZOPYRIDINES AND IMIDAZOPYRIDAZINES AND THE USE THEREOF” (BAYER PHARMA AKTIENGESSELLSCHAFT, priority 2011, published 2014)
